US20250018014A1, “METHOD FOR TREATING AND/OR PREVENTING REGNASE-1-RELATED DISEASE” (OSAKA UNIVERSITY, priority 2018, published 2025)
Residues, ends and D or L forms follow the SMILES beside them.

Tests used:
[1] = molecular target: T1, ΔCTD_Reg1 (amino acids 1 to 546 of human Regnase-1) phosphorylation by IKKβ (Homo sapiens, UniProt Q5D1E8); test: Regnase-1 phosphorylation inhibition by compounds (AlphaScreen), IKKβ, CTD-deficient Regnase-1; type: biochemical; conditions: Table 14; phosphorylation by IKKβ; read-out: Phosphorylation inhibition ΔCTD_Reg1, 50% inhibition concentration (IKKβ)
T1 construct: made in house; host or cells: Expi293 cells
T1 sequence (Q5D1E8 1-546): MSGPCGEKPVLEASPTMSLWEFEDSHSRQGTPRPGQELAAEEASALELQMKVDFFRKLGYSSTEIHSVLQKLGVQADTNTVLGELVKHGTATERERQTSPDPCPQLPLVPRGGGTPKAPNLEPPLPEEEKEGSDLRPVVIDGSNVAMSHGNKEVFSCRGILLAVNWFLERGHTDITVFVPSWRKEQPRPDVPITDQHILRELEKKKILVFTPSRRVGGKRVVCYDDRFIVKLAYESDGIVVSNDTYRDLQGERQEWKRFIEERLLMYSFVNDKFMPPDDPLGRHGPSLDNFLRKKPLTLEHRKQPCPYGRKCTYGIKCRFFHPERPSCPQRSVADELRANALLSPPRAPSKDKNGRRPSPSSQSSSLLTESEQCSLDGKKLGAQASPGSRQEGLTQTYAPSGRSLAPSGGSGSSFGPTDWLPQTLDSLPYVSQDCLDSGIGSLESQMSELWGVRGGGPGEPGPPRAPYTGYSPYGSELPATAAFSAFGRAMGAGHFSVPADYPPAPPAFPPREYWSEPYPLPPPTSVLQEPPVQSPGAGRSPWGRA
Description: Among the full-length human Regnase-1 sequence, the 1st to 546th amino acid sequence was prepared and made into a construct having a FLAG tag on the N-terminal side and a biotin ligase BirA recognition sequence on the C-terminal side (herein, a Regnase-1 lacking the C-terminal domain of Regnase-1 (amino acids 547 to 599 in the case of SEQ ID NO: 2) is referred to as “ΔCTD_Reg1”. “ΔCTD_Reg1” is different from “Regnase-1ΔCTD”, which is a C-terminal domain deletion variant resulting from a frameshift mutation caused by a 1 bp deletion at codon 517, as prepared in Example 13). In addition, the sequence from amino acids 301 to 599 of the full-length human Regnase-1 sequence was designated as C-terminal Regnase-1, and a construct having a FLAG tag on the N-terminal side and a recognition sequence for biotin ligase BirA on the C-terminal side was prepared (Reg1_301-599). The above-mentioned Regnase-1 was expressed in mammalian Expi293 cells, purified with FLAG M2 agarose, and isolated by gel filtration chromatography. When biotinylation was required, methods of nonpatent documents (BMC biotechnology, 2008,8,41; and Protein Science, 1999,8,921-929) were used.
(§1) Using Kinase assay buffer III (manufactured by SignalChem) supplemented with 2 mM DTT, 100 μM sodium vanadate, and 2 mM manganese chloride, kinase (IKKβ (manufactured by SignalChem) or TBK1 (manufactured by SignalChem)) and Regnase-1 were reacted in the presence of 10 μM ATP at room temperature for 2 hours to perform a phosphorylation reaction.
(§2) Phosphorylated Regnase-1 was detected by the AlphaScreen system. After each of the above-mentioned phosphorylated Regnase-1 antibodies was added and reacted at room temperature for one hour, anti-FLAG AlphaLISA Acceptor Beads (manufactured by PerkinElmer) and Protein A AlphaScreen Donor Beads (manufactured by PerkinElmer) were added, and EnVision (manufactured by PerkinElmer) was used to measure the excited luminescence. As a result, phosphorylated Regnase-1 produced by the phosphorylation reaction by kinase was specifically detected, and signals were confirmed to be enhanced in a manner dependent on Regnase-1 and kinase concentrations (FIG. 24).
(§3) After mixing 2 nM of the above-mentioned Regnase-1 and the compound, phosphorylated Regnase-1 produced by the phosphorylation reaction was detected by the AlphaScreen system. As the results, the inhibition rate was calculated from the signals obtained when adding the compound at each concentration, by defining the signal obtained with Regnase-1 alone to be 100% inhibition rate, and the signal obtained when the same amount of solvent (DMSO) is added in place of the compound as 0% inhibition rate. The 50% inhibition concentration (μM) was calculated from the obtained dose response curve (Table 11).

[2] = molecular target: T2, binding between IKKβ and full-length Regnase-1 (FL_Reg1) (Homo sapiens, UniProt Q5D1E8); test: Inhibition of kinase-Regnase-1 binding by the compounds (AlphaScreen), IKKβ; conditions: Table 14; binding between IKKβ and Regnase-1; read-out: Binding inhibition FL_Reg1, 50% inhibition concentration (IKKβ)
T2 construct: made in house; host or cells: Expi293 cells
T2 sequence (Q5D1E8 1-599): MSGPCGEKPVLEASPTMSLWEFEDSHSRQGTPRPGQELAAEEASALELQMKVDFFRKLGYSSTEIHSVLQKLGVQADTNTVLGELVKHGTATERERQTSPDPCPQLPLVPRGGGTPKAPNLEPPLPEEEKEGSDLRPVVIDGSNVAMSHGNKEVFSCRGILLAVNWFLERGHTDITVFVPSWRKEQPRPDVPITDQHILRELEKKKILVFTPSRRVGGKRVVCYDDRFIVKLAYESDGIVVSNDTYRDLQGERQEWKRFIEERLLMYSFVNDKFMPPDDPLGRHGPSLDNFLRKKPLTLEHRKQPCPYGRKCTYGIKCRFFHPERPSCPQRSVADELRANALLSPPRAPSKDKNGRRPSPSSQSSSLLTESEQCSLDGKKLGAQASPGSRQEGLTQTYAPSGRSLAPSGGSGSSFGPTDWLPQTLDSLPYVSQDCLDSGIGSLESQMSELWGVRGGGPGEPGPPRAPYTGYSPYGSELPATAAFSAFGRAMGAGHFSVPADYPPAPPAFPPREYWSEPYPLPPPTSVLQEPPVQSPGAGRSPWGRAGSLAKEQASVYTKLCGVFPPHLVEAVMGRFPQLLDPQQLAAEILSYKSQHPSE
Description: (§4) As a target protein, a construct having a FLAG tag on the N-terminal side and a recognition sequence for biotin ligase BirA on the C-terminal side of the full-length sequence of human Regnase-1 (UniProt ID: Q5D1E8) was prepared (FL_Reg1). The above-mentioned Regnase-1 was expressed in mammalian Expi293 cells, purified with FLAG M2 agarose, and isolated by gel filtration chromatography. When biotinylation was required, methods from nonpatent documents (BMC biotechnology, 2008,8,41; and Protein Science, 1999,8,921-929) were used.
(§5) After mixing 2.5 nM of the above-mentioned Regnase-1 and the compound, 2.5 nM of IKKβ or TBK1 was added and reacted at room temperature for two hours. Then, Anti FLAG AlphaLISA Acceptor Beads (manufactured by PerkinElmer) and Glutathione-coated AlphaScreen Donor Beads (manufactured by PerkinElmer) were added, and excited luminescence was measured using En Vision (manufactured by PerkinElmer). As the results, the inhibition rate from the signals obtained when adding the compound at each concentration were calculated, by defining the signal obtained with Regnase-1 alone to be 100% inhibition rate, and the signal obtained when the same amount of solvent (DMSO) is added in place of the compound as 0% inhibition rate. The 50% inhibition concentration (μM) was calculated from the obtained dose response curve (Table 12).

[3] = molecular target: T3, binding between TBK1 and full-length Regnase-1 (FL_Reg1) (Homo sapiens, UniProt Q5D1E8); test: Inhibition of kinase-Regnase-1 binding by the compounds (AlphaScreen), TBK1; conditions: Table 13; binding between TBK1 and Regnase-1; read-out: Binding inhibition FL_Reg1, 50% inhibition concentration (TBK1)
T3 construct: made in house; host or cells: Expi293 cells
T3 sequence (Q5D1E8 1-599): T2 sequence (Q5D1E8 1-599)
Description: as §4, §5

[4] = molecular target: T4, FL_Reg1 (full-length human Regnase-1) phosphorylation by IKKβ (Homo sapiens, UniProt Q5D1E8); test: Regnase-1 phosphorylation inhibition by compounds (AlphaScreen), IKKβ, full-length Regnase-1; type: biochemical; conditions: Table 14; phosphorylation by IKKβ; read-out: Phosphorylation inhibition FL_Reg1, 50% inhibition concentration (IKKβ)
T4 construct: made in house; host or cells: Expi293 cells
T4 sequence (Q5D1E8 1-599): T2 sequence (Q5D1E8 1-599)
Description: as §4, with “The full-length sequence of human Regnase-1 (UniProt ID: Q5D1E8) was used to prepare” for “As a target protein,”, “(FL_Reg1) as a target protein.” for “of the full-length sequence of human Regnase-1 (UniProt ID: Q5D1E8) was prepared (FL_Reg1).”, “used. […]” for “used.”
as §1, §2, §3

[5] = molecular target: T5, FL_Reg1 (full-length human Regnase-1) phosphorylation by TBK1 (Homo sapiens, UniProt Q5D1E8); test: Regnase-1 phosphorylation inhibition by compounds (AlphaScreen), TBK1, full-length Regnase-1; type: biochemical; conditions: Table 13; phosphorylation by TBK1; read-out: Phosphorylation inhibition FL_Reg1, 50% inhibition concentration (TBK1)
T5 construct: made in house; host or cells: Expi293 cells
T5 sequence (Q5D1E8 1-599): T2 sequence (Q5D1E8 1-599)
Description: as §4, with “The full-length sequence of human Regnase-1 (UniProt ID: Q5D1E8) was used to prepare” for “As a target protein,”, “(FL_Reg1) as a target protein.” for “of the full-length sequence of human Regnase-1 (UniProt ID: Q5D1E8) was prepared (FL_Reg1).”, “used. […]” for “used.”
as §1, §2, §3

IC50 [1] [µM]	IC50 [2] [µM]	IC50 [3] [µM]	IC50 [4] [µM]	IC50 [5] [µM]	Structure (SMILES)
47.7	> 62.1	13.1	27	18.9	C[C@@H]1C(=O)N[C@@H](CCC(=O)O)C(=O)N[C@@H](CC(=O)O)C(=O)N[C@@H]([C@@H](C)O)C(=O)N2CCC[C@H]2C(=O)N[C@@H](CCC(=O)O)C(=O)N[C@@H](CC(=O)O)C(=O)N[C@@H](CC(=O)O)C(=O)N[C@@H](Cc2c[nH]cn2)C(=O)N[C@H](C(=O)N2CCCC2)CC(=O)N1C [PP25] (HELM PEPTIDE1{[C[C@H](C(=O)[*:2])N(C)[*:1]].E.D.T.P.E.D.D.H.D.[C1CCN([*:1])C1]}$PEPTIDE1,PEPTIDE1,1:R1-10:R3$$$V2.0)
–	10.6	8.3	2.7	4.2	CC[C@H](C)[C@@H]1NC(=O)[C@H](CCCCN)NC(=O)[C@H](Cc2ccc(O)cc2)NC(=O)[C@H](Cc2c[nH]c3ccccc23)NC(=O)[C@H](CO)NC(=O)[C@H](CO)NC(=O)[C@H](Cc2c[nH]cn2)NC(=O)CNC(=O)[C@H](Cc2ccc(O)cc2)NC(=O)[C@H]([C@@H](C)O)NC(=O)[C@@H](C)N(C)C(=O)C[C@@H](C(=O)N2CCCC2)NC(=O)[C@H](Cc2c[nH]c3ccccc23)NC1=O [PP9] (HELM PEPTIDE1{[C[C@H](C(=O)[*:2])N(C)[*:1]].T.Y.G.H.S.S.W.Y.K.I.W.D.[C1CCN([*:1])C1]}$PEPTIDE1,PEPTIDE1,1:R1-13:R3$$$V2.0)
–	8.8	7.7	5.3	35.7	CC[C@H](C)[C@@H]1NC(=O)[C@H](Cc2c[nH]c3ccccc23)NC(=O)[C@H](C)N(C)C(=O)C[C@@H](C(=O)N2CCCC2)NC(=O)[C@H](CCC(=O)O)NC(=O)[C@H](CC(N)=O)NC(=O)[C@H](Cc2c[nH]c3ccccc23)NC(=O)[C@H](Cc2ccccc2)NC(=O)[C@H](CC(=O)O)NC(=O)[C@H](Cc2c[nH]c3ccccc23)NC1=O [PP24] (HELM PEPTIDE1{[meA].W.I.W.D.F.W.N.E.D.[C1CCN([*:1])C1]}$PEPTIDE1,PEPTIDE1,1:R1-10:R3$$$V2.0)
